≈ marks a conversion by molar mass, not a printed value. Like-named read-outs stand apart in the source and are kept apart here. Each block holds one compound with its values, some of them ahead of it.
Assays:
[1] = system: S. aureus ATCC 13709 (Smith); assay: Mouse systemic infection model, S. aureus septicemia; conditions: mouse septicemia, S. aureus ATCC 13709, intravenous treatment one hour post-challenge, survival after 48 hours
[2] = system: E. coli S30 extract system, coupled in vitro transcription/translation, firefly luciferase readout; assay: In vitro transcription/translation (TnT) assay; assay type: biochemical; conditions: for IC50, in vitro transcription/translation system: E. coli S30 extract, luciferase readout
[3] = system: E. coli ATCC 25922; assay: Mouse systemic infection model, E. coli septicemia; conditions: mouse septicemia, E. coli ATCC 25922, treatment one hour post-challenge, survival after 48 hours
[4] = system: Escherichia coli EC107, ATCC 25922; assay: MIC assay, EC107; assay type: cell-based
[5] = system: S. pneumoniae clinical isolates; assay: MIC50, MIC90 and MIC range, panel of clinical isolates (Example 20); assay type: cell-based; conditions: 19 isolates
Experimental: (§1) The assays were run as follows.
(§2) Both values, as well as the MIC range (the lowest and highest MIC value observed for a collection of organisms), were determined for the isolates listed in Table 3.

[6] = system: E. faecalis clinical isolates; assay: as above; assay type: cell-based; conditions: 24 isolates, in µg/mL
Experimental: as §1, §2

[7] = system: S. aureus clinical isolates; assay: as above; assay type: cell-based; conditions: MRSA, 30 isolates; in µg/mL
Experimental: as §1, §2

[8] = system: Staphylococcus aureus SA100, ATCC 13709, MSSA, Smith strain; assay: MIC assay, SA100; assay type: cell-based; conditions: read-out: MIC S. aureus ATCC 13709
[9] = system: E. coli DH10B(pBAD-tetM), expressing tet(M); assay: MIC against recombinant E. coli expressing tet(M); assay type: cell-based; conditions: for MIC: Escherichia coli; for Ratio (TetM induced / Uninduced): ratio of MICs
Excerpt: (§3) Constructs were transformed into E. coli DH10B for expression. Recombinant strains were pre-induced under optimized conditions with L-arabinose prior to use as inocula in CLSI standardized MIC assays.

[10] = system: E. coli DH10B(pBAD-tetK), expressing tet(K); assay: MIC against recombinant E. coli expressing tet(K); assay type: cell-based; conditions: for MIC: Escherichia coli; for MIC ratio, TetK induced to uninduced: ratio of TetK induced to uninduced MIC
Excerpt: as §3

[11] = system: Streptococcus pneumoniae SP106, ATCC 49619; assay: MIC assay, SP106; assay type: cell-based; conditions: ATCC49619, Table 8, read-out: MIC S. pneumoniae ATCC 49619
[12] = system: Staphylococcus aureus SA161, HA-MRSA, tetracycline-resistant, tet(M); assay: MIC assay, SA161; assay type: cell-based; conditions: Table 8, read-out: MIC S. aureus MRSA, tetM
[13] = system: Staphylococcus aureus SA158, tetracycline-resistant tet(K); assay: MIC assay, SA158; assay type: cell-based; conditions: Table 8, read-out: MIC S. aureus tetK
[14] = system: Enterococcus faecalis EF103, ATCC 29212; assay: MIC assay, EF103; assay type: cell-based; conditions: Enterococcus faecalis, ATCC29212; Table 8; read-out: MIC E. faecalis ATCC 29212
[15] = system: Escherichia coli EC155, tetracycline-resistant, tet(A); assay: MIC assay, EC155; assay type: cell-based; conditions: Table 8, read-out: MIC E. coli tetA
[16] = system: Enterococcus faecalis EF159, tetracycline-resistant, tet(M); assay: MIC assay, EF159; assay type: cell-based; conditions: Table 8, read-out: MIC E. faecalis tetM
[17] = system: Staphylococcus aureus SA101, ATCC 29213, MSSA; assay: MIC assay, SA101; assay type: cell-based; conditions: Table 8, read-out: MIC S. aureus ATCC 29213
[18] = system: Streptococcus pneumoniae SP160, tetracycline-resistant, tet(M); assay: MIC assay, SP160; assay type: cell-based; conditions: Table 8, read-out: MIC S. pneumoniae tetM

SMILES: CN(C)c1cc(NC(=O)CNC(C)(C)C)c(O)c2c1C[C@H]1C[C@H]3[C@H](N(C)C)C(O)=C(C(N)=O)C(=O)[C@@]3(O)C(O)=C1C2=O [tigecycline, reference compound]
PD50 [1]: 0.35 mg/kg | TnT IC50 [2]: 0.47 µg/mL | PD50 [3]: 2.1 mg/kg | MIC ([4]; ATCC25922, read-out: MIC E. coli ATCC 25922): 0.13 µg/mL (≈ 0.222 µM) | MIC Range [5]: ≦0.016 | MIC Range [6]: <=0.016-0.13 | MIC Range [7]: 0.063-0.25 | MIC [8]: 0.13 µg/mL (≈ 0.222 µM)

SMILES: C[C@H]1COc2c(N3CCN(C)CC3)c(F)cc3c(=O)c(C(=O)O)cn1c23 [Levofloxacine, levofloxacin, reference compound]
MIC ([9]; read-out: MIC, TetM induced): 0.0156 µg/mL | MIC ([9]; read-out: MIC, Uninduced): 0.0156 µg/mL | Ratio (TetM induced / Uninduced) [9]: 1 | MIC ([10]; read-out: MIC, TetK Induced): 0.0156 µg/mL | MIC ([10]; read-out: MIC, Uninduced): 0.0156 µg/mL | MIC ratio, TetK induced to uninduced [10]: 1

MIC [11]: 0.016 µg/mL (≈ 0.0369 µM) | MIC [12]: 8 µg/mL (≈ 18.5 µM) | MIC [13]: 8 µg/mL (≈ 18.5 µM) | MIC ([4]; ATCC25922, Table 8, read-out: MIC E. coli ATCC 25922): 0.25 µg/mL (≈ 0.577 µM) | MIC [14]: 4 µg/mL (≈ 9.23 µM) | MIC [15]: > 32 µg/mL | MIC [16]: 32 µg/mL (≈ 73.8 µM) | MIC [17]: 0.031 µg/mL (≈ 0.0715 µM) | MIC [18]: 8 µg/mL (≈ 18.5 µM)
SMILES: CN(C)[C@@H]1C(O)=C(C(N)=O)C(=O)[C@@]2(O)C(O)=C3C(=O)c4c(O)cnc(F)c4C[C@H]3C[C@@H]12 [Compound 144]

SMILES: CN(C)[C@@H]1C(O)=C(C(N)=O)C(=O)[C@@]2(O)C(O)=C3C(=O)c4c(O)c(N)nc(F)c4C[C@H]3C[C@@H]12 [Compound 125]
TnT IC50 [2]: 0.93 µg/mL | IC50, in vitro transcription/translation system [2]: sub-μg/ml

SMILES: CN(C)[C@@H]1C(O)=C(C(N)=O)C(=O)[C@@]2(O)C(O)=C3C(=O)c4c(O)c(N)nc(Cl)c4C[C@H]3C[C@@H]12 [Compound 147]
TnT IC50 [2]: 1.1 µg/mL

SMILES: CCCNc1nc(F)c2c(c1O)C(=O)C1=C(O)[C@]3(O)C(=O)C(C(N)=O)=C(O)[C@@H](N(C)C)[C@@H]3C[C@@H]1C2 [Compound 114]
TnT IC50 [2]: 2.8 µg/mL

SMILES: NCC[C@H](O)C(=O)N[C@@H]1C[C@H](N)[C@@H](O[C@H]2O[C@H](CN)[C@@H](O)[C@H](O)[C@H]2O)[C@H](O)[C@H]1O[C@H]1O[C@H](CO)[C@@H](O)[C@H](N)[C@H]1O [Amikacin, amikacin, reference compound]
MIC ([9]; read-out: MIC, TetM induced): 4 µg/mL | MIC ([9]; read-out: MIC, Uninduced): 4 µg/mL | Ratio (TetM induced / Uninduced) [9]: 1 | Effect of expression of (tet)M on activity ([9]; result in words): unaffected | MIC ([10]; read-out: MIC, TetK Induced): 8 µg/mL | MIC ([10]; read-out: MIC, Uninduced): 8 µg/mL | MIC ratio, TetK induced to uninduced [10]: 1 | Effect of expression of (tet)K on activity ([10]; result in words): unaffected

SMILES: CN(C)CCCNc1nc(Cl)c2c(c1O)C(=O)C1=C(O)[C@]3(O)C(=O)C(C(N)=O)=C(O)[C@@H](N(C)C)[C@@H]3C[C@@H]1C2 [Compound 119]
TnT IC50 [2]: 0.58 µg/mL | IC50, in vitro transcription/translation system [2]: sub-μg/ml

SMILES: CN(C)[C@@H]1C(O)=C(C(N)=O)C(=O)[C@@]2(O)C(O)=C3C(=O)c4c(O)c(NC(=O)CNC(C)(C)C)nc(F)c4C[C@H]3C[C@@H]12 [Compound 120]
TnT IC50 [2]: 0.36 µg/mL | IC50, in vitro transcription/translation system [2]: sub-μg/ml

— patent publication US8828988B2 (Tetraphase Pharmaceuticals, Inc., priority 2009, dated 2014)
